Data set [1] can be described thus: Biodistribution in normal mice after i.v. injection. It is filed as in vivo. As to conditions: for affinity / avidity for normal tissues: 1 hour and 24 hours; for injected dose remaining in the body by 24 hours: ~5 μCi/100 μl. As for the experimental part: Mice (n=30) were injected i.v. with the radiopharmaceutical (˜5 μCi/100 μl), the animals were killed at 1 hour (n=15) and 24 hours (n=15), and the radioactivity associated with blood, tissues, and organs was determined.
The biodistribution of ^125I-labeled Compound B was also examined in various tissues in normal mice. […] However, by 24 hours (FIG. 5), all tissues and organs (with the exception of minimal activity in the thyroid) were virtually void of radioactivity (<4% of the injected dose remained in the body by 24 hours).

Data set [2] is described as follows: Blood clearance after i.v. injection in mice. As to conditions: bled over 1 hour, blood radioactivity.
Data set [3] is described as follows: Retention of radioactivity in forelimb after s.c. injection, and 24 hour biodistribution. It is filed as in vivo, mice. How it is done:
[…] […] The animals were killed after 1 hour, 24 hours, and 48 hours, the radioactivity associated with the forelimbs was measured, and the percentage of radioactivity remaining was calculated (at the 24 hour time point, the biodistribution of radioactivity in various tissues and organs was also determined).

The test system of data set [4] is alkaline phosphatase (ALP). Particulars: ~10 μCi/100 μl 0.1 M Tris pH 7.2, 5 units ALP; only with active enzyme, not heat-inactivated ALP.
Data set [5] can be described thus: Chemical nature of radioactivity in blood (stability), TLC and autoradiography of blood samples. Type of data set: in vivo, mice. Particulars: blood samples from first 40 min, ethanol supernatant, TLC; single spot with same Rf as 127I-labeled Compound A. The source says:
The plates were run in acetonitrile-water (1.5:2) and autoradiographed.

For data set [6] the following is noted: mouse, in vivo, iv.
Data set [7] concerns alkaline phosphatase (ALP). How it is done: The animals were killed 1 hour later and the radioactivity in the forelimbs was measured.
A short description of a further data set: Solubility observations. Type of data set: physicochemical.

Each structure is given as a SMILES string.

As for `N.O=c1[nH]c(-c2ccccc2OP(=O)(O)O)nc2ccc(I)cc12` [^125-I labeled Compound A, Ammonium 2-(2′-Phosphoryloxyphenyl)-6-iodo-4-(3H)-quinazolinone], in data set [1], the “dehalogenation (thyroid activity)” value is “minimal dehalogenation”, the “affinity / avidity for normal tissues” value is reported as “low affinity to normal tissues” and the “injected dose remaining in the body by 24 hours” value is recorded as < 20 % of the injected dose. Also, the T1/2β in data set [2] was 51.1 ± 6.8 min. Besides, the “fraction seeped out of the s.c. pocket by 24 hours” value in data set [3] (s.c. left forelimb, 5 μCi/5 μl saline followed by 5 μl DMSO) is given as “greater than 98%”. Further, the “conversion to 125I-labeled Compound B” value in data set [4] is given as “complete conversion”. For the same compound, the “stability in blood: chemical nature of radioactivity” value in data set [5] is on record as “no evidence of free iodine”. Moreover, the “blood clearance of radioactivity” value in data set [6] is recorded as “rapid biphasic blood clearance”. Moreover, the “radioactive content within forelimbs pre-injected with ALP” value in data set [7] (ALP 50-400 units/10 μl s.c., 20 μCi i.v. five minutes later, killed 1 hour later) is “increased with enzyme dose and plateaued at the highest concentrations”. Moreover, the “uptake in forelimbs pre-injected with heat-inactivated ALP” value in data set [7] (heat-inactivated ALP s.c., i.v. prodrug, 1 hour) was “no increase in uptake”.
For the compound `O=c1[nH]c(-c2ccccc2O)nc2ccc(I)cc12` [^125-I labeled Compound B, 2-(2′-Hydroxyphenyl)-6-iodo-4-(3H)-quinazolinone], the “radioactivity in all tissues examined at 1 hour” value in data set [1] (1 hour) is given as < 15 % ID/g. Also, in data set [1], the “affinity / avidity for normal tissues” value is given as “no avidity for any tissue” and the “injected dose remaining in the body by 24 hours” value is reported as < 4 % of the injected dose. Moreover, the “localization of escaped radioactivity in normal tissues” value in data set [3] (biodistribution 24 hours after s.c. injection) is given as “does not localize in any normal tissues”. Further, in data set [3] (s.c. forelimb), the “change in forelimb radioactivity between 24 hours and 48 hours” value is on record as “no change”. In addition, the “injected activity remaining at the injection site at 24 hours” value in data set [3] (s.c. right forelimb, 5 μl DMSO solution followed by 5 μl saline) stood at 71±5%. In addition, the “solubility in DMSO” value in “Solubility observations” (100 μl DMSO) is “completely soluble”. Besides, the “behaviour on adding water to the DMSO solution” value in “Solubility observations” (100 μl water added to 100 μl DMSO) was “visible precipitate forms immediately”.

Values taken from patent US8603437B2, “Methods for tumor diagnosis and therapy” (President and Fellows of Harvard College, priority 2000, dated 2013).
